# Measurements: PubChem BioAssay (NCI)
#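 Tested at 5 concentrations; 48 h exposure; 96-well plates; endpoints linearly interpolated, else capped at highest concentration. TGI denotes the concentration required for complete inhibition of growth.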 Where a SMILES comes first, the peptide text is derived from it. [ ]: non-standard residue; d: D form. The star is where a group is joined. Cbz = O=C(OCc1ccccc1)*; Boc = CC(C)(C)OC(=O)*; Aib = CC(C)(N)C(=O)O; OBn = c1ccc(CO*)cc1; OtBu = CC(C)(C)O*; βAla = NCCC(=O)O
# Assays:
# Assay in all cases: growth of human tumour cells (NCI), 48 h
# [1] = tested on: BT-549 breast
# [2] = tested on: HCT-116 colon
# [3] = tested on: HS 578T breast
# [4] = tested on: OVCAR-5 ovarian
# [5] = tested on: PC-3 prostate
# [6] = tested on: RPMI-8226 leukemia
# [7] = tested on: SK-MEL-5 melanoma
# [8] = tested on: SN12C renal
# [9] = tested on: SNB-19 CNS
# [10] = tested on: SW-620 colon
SMILES,TGI [1],TGI [2],TGI [3],TGI [4],TGI [5],TGI [6],TGI [7],TGI [8],TGI [9],TGI [10]
Cc1cc(S(=O)(=O)Nc2nc(N)nc(N3N=CCC3C)n2)c(S)cc1Cl (stereo not given),> 10 µM,> 10 µM,> 10 µM,> 10 µM,> 10 µM,> 10 µM,> 10 µM,> 10 µM,> 10 µM,> 10 µM
Cc1cc(S(=O)(=O)Nc2nnc3cc(C(F)(F)F)cc(C)n23)c(S)cc1Cl,> 100 µM,> 100 µM,> 100 µM,> 100 µM,> 100 µM,> 100 µM,> 100 µM,> 100 µM,> 86.4 µM,> 100 µM
O=C(/C=C/c1ccc([N+](=O)[O-])cc1)c1nc2ccccc2[nH]1,> 100 µM,> 38.7 µM,> 100 µM,24.1 µM,> 100 µM,33.3 µM,> 100 µM,> 100 µM,> 100 µM,> 100 µM
CC[N+](C)(CC)CCN1C(=O)c2ccccc2S1(=O)=O,> 100 µM,> 100 µM,> 100 µM,> 100 µM,> 100 µM,> 100 µM,> 100 µM,> 100 µM,> 100 µM,> 100 µM
O=C1[C@@H]2Cc3c([nH]c4ccccc34)C(C3CCCCC3)N2C(=O)[C@@H]2CCCN12 (stereo not given in full),88 µM,74.5 µM,68.7 µM,> 100 µM,60.6 µM,51 µM,35.7 µM,63.4 µM,> 100 µM,> 100 µM
NC(CCCCNC(=O)OCc1ccccc1)C(=O)NC(CCCCNC(=O)OCc1ccccc1)C(=O)ON1C(=O)CCC1=O (stereo not given),> 100 µM,> 100 µM,> 100 µM,> 100 µM,> 100 µM,> 100 µM,> 100 µM,> 100 µM,> 100 µM,> 100 µM
COc1ccc(OC)c2cc(Cc3ccc(N(C)C)cc3)c(=O)c(Cc3ccc(N(C)C)cc3)cc12,> 100 µM,> 100 µM,87.7 µM,> 100 µM,> 100 µM,84.5 µM,> 100 µM,> 100 µM,> 100 µM,> 100 µM
CCOC(=O)C(O)(NC(C)=O)C(F)(F)F (stereo not given),> 100 µM,> 100 µM,> 100 µM,> 100 µM,> 100 µM,> 100 µM,> 100 µM,> 100 µM,> 100 µM,> 100 µM
CCOC(=O)C1=C(C)NC(=S)NC1c1cccc(O)c1 (stereo not given),> 100 µM,> 100 µM,> 100 µM,> 100 µM,> 89.6 µM,> 97 µM,> 100 µM,> 95.3 µM,> 100 µM,> 100 µM
Nc1nc2c(ncn2C2C=CC(CO)O2)c(=O)[nH]1 (stereo not given),> 100 µM,> 100 µM,> 100 µM,> 100 µM,> 100 µM,> 100 µM,> 100 µM,> 100 µM,> 100 µM,> 100 µM
OC1OC(c2ccco2)C(F)(F)C(F)(F)C1(F)F (stereo not given),> 100 µM,> 100 µM,76.2 µM,> 100 µM,> 100 µM,> 100 µM,89.1 µM,> 100 µM,> 100 µM,> 100 µM
CCCCCCCCCCCCCCCCNc1nc(=O)n(C2CC(O)C(CO)O2)cc1F (stereo not given),32.4 µM,23.5 µM,38.7 µM,47.6 µM,21.2 µM,37.6 µM,48.1 µM,26.9 µM,34.6 µM,32.1 µM
COc1ccc(-c2c(C#N)c(-c3ccccc3)n(NS(=O)(=O)c3ccccc3)c(=O)c2C#N)cc1,> 100 µM,> 100 µM,> 100 µM,> 100 µM,> 100 µM,68.8 µM,> 100 µM,> 100 µM,> 100 µM,> 100 µM
O=C(O)c1ccccc1/C=N\NC1=NCCCCN1,> 100 µM,> 100 µM,> 100 µM,> 100 µM,> 100 µM,> 100 µM,> 100 µM,> 100 µM,> 100 µM,> 100 µM
CCOP(=O)(OCC)C(Nc1ccc(F)cc1)c1cccc([N+](=O)[O-])c1 (stereo not given),> 100 µM,> 100 µM,> 100 µM,> 100 µM,> 100 µM,> 100 µM,> 100 µM,> 100 µM,> 100 µM,> 100 µM
O=C1C=CC(=O)c2ncccc21,15.5 µM,4.27 µM,56.4 µM,32.2 µM,22.3 µM,> 22 µM,18 µM,16 µM,19.1 µM,4.62 µM
CC1(C)[C@@H]2C[C@H]1c1cnc(-c3ccccn3)cc1C2[C@@H]1c2cc(-c3ccccn3)ncc2[C@@H]2C[C@H]1C2(C)C (stereo not given in full),> 100 µM,> 100 µM,> 100 µM,> 100 µM,> 100 µM,> 100 µM,> 100 µM,> 100 µM,> 100 µM,> 100 µM
COC(=O)C(COC(=O)/C=C/c1ccc(OC(C)=O)c(OC(C)=O)c1)OC(=O)/C=C/c1ccc(OC(C)=O)c(OC(C)=O)c1 (stereo not given),33.5 µM,16.3 µM,> 100 µM,36.8 µM,23.4 µM,66.4 µM,28.3 µM,27.8 µM,22.2 µM,23.5 µM
CSc1ncc2c(n1)-c1ccccc1OC2N1CCCC1 (stereo not given),> 100 µM,> 100 µM,> 100 µM,> 100 µM,> 100 µM,> 100 µM,> 100 µM,> 100 µM,> 100 µM,> 100 µM
O=C1NC(N/N=C\c2ccccc2)=N/C1=C/c1ccc(Cl)cc1,49.5 µM,71.4 µM,51.4 µM,94.1 µM,43.4 µM,59.7 µM,43.9 µM,54.6 µM,35.9 µM,> 100 µM
CC(C)(C)OC(=O)CC(NC(=O)OC(C)(C)C)C(=O)NC(CCCCNC(=O)OCc1ccccc1)C(=O)NC(C)(C)C(=O)NCCC(=O)OCc1ccccc1 (stereo not given) (Boc-D(OtBu)K(Cbz)[Aib][βAla]-OBn; configuration not given here),> 100 µM,> 100 µM,> 100 µM,> 100 µM,> 100 µM,> 100 µM,> 100 µM,> 100 µM,> 100 µM,> 100 µM
O=c1cc(-c2ccccc2)[nH]c2cccc(S)c12,> 100 µM,> 100 µM,> 100 µM,> 100 µM,> 100 µM,> 100 µM,> 100 µM,> 100 µM,> 100 µM,> 100 µM
CCN(CC)CCCNc1ccc2nnn3c4ccc(O)cc4c(=O)c1c23,27 µM,16.3 µM,31 µM,26.8 µM,19.3 µM,32.2 µM,22.6 µM,20.7 µM,22.8 µM,18.4 µM
COc1cc2ccnc3c2c(c1O)N(C)C=C3,22.9 µM,16.4 µM,53.1 µM,33.9 µM,29.5 µM,> 100 µM,32.5 µM,> 61.2 µM,> 62.9 µM,> 100 µM
Cc1ccc2c(c1)OC1Nc3ccccc3C1=C2O (stereo not given),66.1 µM,65.1 µM,> 100 µM,> 100 µM,39.6 µM,> 100 µM,34 µM,93.4 µM,> 100 µM,> 100 µM
CCCCN(c1ccccc1)c1ncnc2c1cnn2C,62.1 µM,> 100 µM,76.4 µM,> 100 µM,> 100 µM,48 µM,> 100 µM,> 100 µM,> 100 µM,> 100 µM
C/C=C/[C@H]1O[C@@](OC)([C@@H](C)[C@H](O)[C@H](C)[C@H]2OC(=O)/C(OC)=C/C(C)=C/[C@@H](C)[C@@H](O)[C@@H](C)[C@@H](O)[C@H](C)C/C(C)=C/C=C/[C@@H]2OC)CC(OC2CC(O)C(OC(N)=O)C(C)O2)[C@@H]1C (stereo not given in full),17.6 µM,0.197 µM,17.9 µM,17 µM,6.09 µM,< 0.0378 µM,< 0.0433 µM,9.3 µM,18.1 µM,4.8 µM
COc1ccc(CNc2nc(NCc3ccc(OC)cc3)nc(N3CCOCC3)n2)cc1,> 100 µM,> 100 µM,> 100 µM,41.6 µM,> 100 µM,4.03 µM,24.4 µM,> 100 µM,> 100 µM,> 100 µM
COC(=O)C(C)Sc1nc2cc(Cl)ccc2s1 (stereo not given),> 100 µM,> 100 µM,> 100 µM,> 100 µM,> 100 µM,> 100 µM,> 100 µM,> 100 µM,> 100 µM,> 100 µM
